# Reference: publication PMC6364417, “Kinase inhibitor library screening identifies synergistic drug combinations effective in sensitive and resistant melanoma cells” (Journal of Experimental & Clinical Cancer Research : CR, 2019)
# Experiments:
# Assay in all cases: Kinase inhibitor library screening, PrestoBlue cell viability, 1 or 10 μM, 72 h
# [1] = test system: 501Mel cells (parental); details: 72 h; for cell viability, 501Mel Parental, 1μΜ / cell viability, 501Mel Parental, 10μΜ: in %; for cell viability, 501Mel Parental, 1μΜ / cell viability, 501Mel Parental, 10μΜ / cell viability (kinase inhibitor library screening): 501Mel Parental
# Summary of the method: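 Single-point screen at two doses over three days. Parental and BRAF-inhibitor-resistant sublines (XP: Vemurafenib; GP: Dabrafenib) were assessed by PrestoBlue viability, reported relative to untreated cells.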
# [2] = test system: 501Mel-GP cells (Dabrafenib-resistant); details: 72 h; for cell viability, 501Mel GP, 1μΜ / cell viability, 501Mel GP, 10μΜ: in %; for cell viability, 501Mel GP, 1μΜ / cell viability, 501Mel GP, 10μΜ / cell viability (kinase inhibitor library screening): 501Mel GP
# [3] = test system: 501Mel-XP cells (Vemurafenib-resistant); details: 72 h; for cell viability, 501Mel XP, 1μΜ / cell viability, 501Mel XP, 10μΜ: in %; for cell viability, 501Mel XP, 1μΜ / cell viability, 501Mel XP, 10μΜ / cell viability (kinase inhibitor library screening): 501Mel XP
# [4] = test system: A375 cells (parental); details: for cell viability, A375 Parental, 1μΜ / cell viability, A375 Parental, 10μΜ / cell viability (kinase inhibitor library screening): 72 h, A375 Parental; for cell viability, A375 Parental, 1μΜ / cell viability, A375 Parental, 10μΜ: in %
# [5] = test system: A375-GP cells (Dabrafenib-resistant)
# [6] = test system: A375-XP cells (Vemurafenib-resistant); details: for cell viability, A375 XP, 1μΜ / cell viability, A375 XP, 10μΜ / cell viability (kinase inhibitor library screening): 72 h, A375 XP; for cell viability, A375 XP, 1μΜ / cell viability, A375 XP, 10μΜ: in %
# [7] = test system: IGR37 cells (parental)
# [8] = test system: IGR37-GP cells (Dabrafenib-resistant); details: for cell viability, IGR37 GP, 10μΜ / cell viability, IGR37 GP, 1μΜ / cell viability (kinase inhibitor library screening): 72 h, IGR37 GP; for cell viability, IGR37 GP, 1μΜ: in %
# [9] = test system: IGR37-XP cells (Vemurafenib-resistant); details: for cell viability, IGR37 XP, 10μΜ / cell viability, IGR37 XP, 1μΜ / cell viability (kinase inhibitor library screening): 72 h, IGR37 XP; for cell viability, IGR37 XP, 1μΜ: in %
# [10] = IGR37 Parental, 10μΜ, 72 h, in %
compound,measurement,setting,value
CC(C)(C)c1cc(C=C(C#N)C#N)cc(Br)c1O [AG-1024],"cell viability, 501Mel Parental, 1μΜ",[1]; 1μΜ,98.8
same,"cell viability, 501Mel Parental, 10μΜ",[1]; 10μΜ,98.3
same,"cell viability, 501Mel GP, 1μΜ",[2]; 1μΜ,109.0
same,"cell viability, 501Mel GP, 10μΜ",[2]; 10μΜ,85.4
same,"cell viability, 501Mel XP, 1μΜ",[3]; 1μΜ,99.5
same,"cell viability, 501Mel XP, 10μΜ",[3]; 10μΜ,85.0
same,"cell viability, A375 Parental, 1μΜ",[4]; 1μΜ,99.7
same,"cell viability, A375 Parental, 10μΜ",[4]; 10μΜ,86.3
same,"cell viability, A375 GP, 1μΜ","[5]; A375 GP, 1μΜ, 72 h, in %",98.0
same,"cell viability, A375 GP, 10μΜ","[5]; A375 GP, 10μΜ, 72 h, in %",86.9
same,"cell viability, A375 XP, 1μΜ",[6]; 1μΜ,106.8
same,"cell viability, A375 XP, 10μΜ",[6]; 10μΜ,89.1
same,"cell viability, IGR37 Parental, 10μΜ",[7]; [10],96.2
same,"cell viability, IGR37 GP, 10μΜ",[8]; 10μΜ,76.8%
same,"cell viability, IGR37 GP, 1μΜ",[8]; 1μΜ,96.1
same,"cell viability, IGR37 XP, 10μΜ",[9]; 10μΜ,46%
same,"cell viability, IGR37 XP, 1μΜ",[9]; 1μΜ,95.7
O=C(c1ccc(/C=C/c2n[nH]c3ccccc23)cc1)N1CCNCC1 [KW 2449],viability at 1 µM,"[1]; Homo sapiens, read-out: cell viability, 501Mel Parental, 1μΜ",97.3%
same,viability at 10 µM,"[1]; Homo sapiens, read-out: cell viability, 501Mel Parental, 10μΜ",57.7%
same,viability at 1 µM,"[2]; Homo sapiens, read-out: cell viability, 501Mel GP, 1μΜ",103%
same,viability at 10 µM,"[2]; Homo sapiens, read-out: cell viability, 501Mel GP, 10μΜ",66.3%
same,viability at 1 µM,"[3]; Homo sapiens, read-out: cell viability, 501Mel XP, 1μΜ",96.9%
same,viability at 10 µM,"[3]; Homo sapiens, read-out: cell viability, 501Mel XP, 10μΜ",58%
same,viability at 1 µM,"[4]; Homo sapiens, A-375, 72 h, read-out: cell viability, A375 Parental, 1μΜ",87.5%
same,viability at 10 µM,"[4]; Homo sapiens, A-375, 72 h, read-out: cell viability, A375 Parental, 10μΜ",30.6%
same,viability at 1 µM,"[5]; Homo sapiens, A-375, 72 h, read-out: cell viability, A375 GP, 1μΜ",93.7%
same,viability at 10 µM,"[5]; Homo sapiens, A-375, 72 h, read-out: cell viability, A375 GP, 10μΜ",28%
same,viability at 1 µM,"[6]; Homo sapiens, A-375, 72 h, read-out: cell viability, A375 XP, 1μΜ",94.8%
same,viability at 10 µM,"[6]; Homo sapiens, A-375, 72 h, read-out: cell viability, A375 XP, 10μΜ",40.9%
same,viability at 1 µM,"[7]; Homo sapiens, IGR-37, 72 h, read-out: cell viability, IGR37 Parental, 1μΜ",99.6%
same,viability at 10 µM,"[7]; Homo sapiens, IGR-37, 72 h, read-out: cell viability, IGR37 Parental, 10μΜ",71.9%
same,viability at 1 µM,"[8]; Homo sapiens, IGR-37, 72 h, read-out: cell viability, IGR37 GP, 1μΜ",96.4%
same,viability at 10 µM,"[8]; Homo sapiens, IGR-37, 72 h, read-out: cell viability, IGR37 GP, 10μΜ",45.2%
same,viability at 1 µM,"[9]; Homo sapiens, IGR-37, 72 h, read-out: cell viability, IGR37 XP, 1μΜ",104%
same,viability at 10 µM,"[9]; Homo sapiens, IGR-37, 72 h, read-out: cell viability, IGR37 XP, 10μΜ",18%
Cc1c(NC(=O)OC[C@@H]2COCCN2)cn2ncnc(Nc3ccc4c(cnn4Cc4cccc(F)c4)c3)c12 [BMS-599626 (AC480)],"cell viability, 501Mel Parental, 1μΜ",[1]; 1μΜ,99.1
same,"cell viability, 501Mel Parental, 10μΜ",[1]; 10μΜ,87.7
same,"cell viability, 501Mel GP, 1μΜ",[2]; 1μΜ,106.6
same,"cell viability, 501Mel GP, 10μΜ",[2]; 10μΜ,91.5
same,"cell viability, 501Mel XP, 1μΜ",[3]; 1μΜ,93.0
same,"cell viability, 501Mel XP, 10μΜ",[3]; 10μΜ,61.8
same,"cell viability, A375 Parental, 1μΜ",[4]; 1μΜ,103.3
same,"cell viability, A375 Parental, 10μΜ",[4]; 10μΜ,84.6
same,"cell viability, A375 GP, 10μΜ","[5]; A375 GP, 10μΜ, 72 h, in %",84.2
same,"cell viability, A375 XP, 1μΜ",[6]; 1μΜ,107.8
same,"cell viability, A375 XP, 10μΜ",[6]; 10μΜ,91.0
same,"cell viability, IGR37 Parental, 1μΜ","[7]; IGR37 Parental, 1μΜ, 72 h, in %",109.0
same,"cell viability, IGR37 Parental, 10μΜ",[7]; [10],92.5
same,"cell viability, IGR37 GP, 10μΜ",[8]; 10μΜ,75%
same,"cell viability, IGR37 GP, 1μΜ",[8]; 1μΜ,95.5
same,"cell viability, IGR37 XP, 10μΜ",[9]; 10μΜ,48.2%
same,"cell viability, IGR37 XP, 1μΜ",[9]; 1μΜ,96.7
CCc1cccc(CC)c1NC(=O)N1Cc2n[nH]c(NC(=O)c3ccc(N4CCN(C)CC4)cc3)c2C1 [PHA-680632],cell viability (kinase inhibitor library screening),[1]; 1μΜ,104.0%
same,cell viability (kinase inhibitor library screening),[1]; 10μΜ,95.7%
same,cell viability (kinase inhibitor library screening),[2]; 1μΜ,105.0%
same,cell viability (kinase inhibitor library screening),[2]; 10μΜ,79.1%
same,cell viability (kinase inhibitor library screening),[3]; 1μΜ,96.6%
same,cell viability (kinase inhibitor library screening),[3]; 10μΜ,75.1%
same,cell viability (kinase inhibitor library screening),[4]; 10μΜ,37.5%
same,cell viability (kinase inhibitor library screening),[4]; 1μΜ,85.1%
same,cell viability (kinase inhibitor library screening),"[5]; A375 GP, 1μΜ, 72 h",81.0%
same,cell viability (kinase inhibitor library screening),"[5]; A375 GP, 10μΜ, 72 h",37.4%
same,cell viability (kinase inhibitor library screening),[6]; 1μΜ,93.5%
same,cell viability (kinase inhibitor library screening),[6]; 10μΜ,51.3%
same,cell viability (kinase inhibitor library screening),"[7]; IGR37 Parental, 1μΜ, 72 h",93.9%
same,cell viability (kinase inhibitor library screening),"[7]; IGR37 Parental, 10μΜ, 72 h",73.1%
same,cell viability (kinase inhibitor library screening),[8]; 1μΜ,92.2%
same,cell viability (kinase inhibitor library screening),[8]; 10μΜ,78.7%
same,cell viability (kinase inhibitor library screening),[9]; 1μΜ,96.4%
same,cell viability (kinase inhibitor library screening),[9]; 10μΜ,40.2%
